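Interpolation was linear, between the two tested concentrations surrounding the appropriate level; five concentrations were tested over 48 hours in 96-well plates. TGI: total growth inhibition.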
How the values were obtained:
Assay in all cases: DTP human tumour cell line panel, 48 h
CAKI-1 renal = test system: CAKI-1 renal
EKVX NSCLC = test system: EKVX NSCLC
MDA-N = test system: MDA-N
NCI-H23 lung = test system: NCI-H23 lung
NCI-H522 lung = test system: NCI-H522 lung
OVCAR-5 ovarian = test system: OVCAR-5 ovarian
OVCAR-8 ovarian = test system: OVCAR-8 ovarian
SK-MEL-28 melanoma = test system: SK-MEL-28 melanoma
SK-OV-3 ovarian = test system: SK-OV-3 ovarian
SN12C renal = test system: SN12C renal

| SMILES | TGI (CAKI-1 renal) [µM] | TGI (EKVX NSCLC) [µM] | TGI (MDA-N) [µM] | TGI (NCI-H23 lung) [µM] | TGI (NCI-H522 lung) [µM] | TGI (OVCAR-5 ovarian) [µM] | TGI (OVCAR-8 ovarian) [µM] | TGI (SK-MEL-28 melanoma) [µM] | TGI (SK-OV-3 ovarian) [µM] | TGI (SN12C renal) [µM] |
| --- | --- | --- | --- | --- | --- | --- | --- | --- | --- | --- |
| Cc1sc2ccccc2[n+]1CCC(=O)O | > 100 | > 100 | > 100 | > 100 | > 100 | > 100 | > 100 | > 100 | > 100 | > 100 |
| CC(=O)c1cc2ccccc2n(O)c1=N | > 100 | > 100 | > 100 | > 100 | > 100 | > 100 | > 100 | > 100 | > 100 | > 100 |
| CC(C)OP(=O)(OC(C)C)C(C(C)C)N(C)/C(F)=N/C(F)(F)F (stereo not given) | > 100 | > 100 | > 100 | > 100 | > 100 | > 100 | > 100 | > 100 | > 100 | > 100 |
| O=S1(=O)c2ccccc2NC(=S)CC1c1ccccc1 (stereo not given) | > 100 | > 100 | > 100 | > 100 | > 100 | > 100 | > 100 | > 100 | > 100 | > 100 |
| CC1(COS(=O)(=O)OCC2(C)COS(=O)(=O)OC2)COS(=O)(=O)OC1 | > 100 | > 100 | > 100 | > 89.4 | > 100 | > 100 | > 100 | > 100 | > 100 | > 32.1 |

From PubChem BioAssay (NCI)
